Experimental data: patent US4383113A, “Agricultural sulfonamides” (E. I. Du Pont de Nemours and Company, priority 1981, dated 1983)

Legend:
Design in all cases: key: 0 = no effect, 10 = maximum effect; letter = response symbol
Details in all cases: 0.4 kg/ha
sorghum [1] = experiment: Test A pre-emergence; format: in vivo
In short: (§1)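 Seeds and tubers were treated preemergence in a growth medium with compound in a nonphytotoxic solvent, against untreated controls; emerged plants such as two-leaf barnyardgrass and five-leaf cotton were sprayed postemergence, against solvent-sprayed controls. After sixteen days in a greenhouse, response was rated visually from 0 to 10.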

wheat [2] = experiment: Test A pre-emergence; format: in vivo
In short: as §1

soybean [3] = experiment: Test A pre-emergence; format: in vivo
In short: as §1

corn [4] = experiment: Test A pre-emergence; format: in vivo
In short: as §1

rice [5] = experiment: Test A pre-emergence; format: in vivo
In short: as §1

cocklebur [6] = experiment: Test A pre-emergence; format: in vivo, Xanthium spp.
In short: as §1

wild oats [7] = experiment: Test A pre-emergence; format: in vivo, Avena fatua
In short: as §1

crabgrass [8] = experiment: Test A pre-emergence; format: in vivo, Digitaria spp.
Description: The activity of these compounds was discovered in a number of greenhouse and field tests. The ratings are based on a numerical scale extending from 0=no effect, to 10=maximum effect. The accompanying descriptive symbols have the following meanings:
Seeds of crabgrass (Digitaria spp.), barnyardgrass (Echinochloa crusgalli), wild oats (Avena fatua), cassia (Cassia tora), morningglory (Ipomoea spp.), cocklebur (Xanthium spp.), sorghum, corn, soybean, rice, wheat and nutsedge tubers (Cyperus rotundus) were planted in a growth medium and treated preemergence with a nonphytotoxic solvent solution of the compounds of Table XII. Other batches of seeds and tubers for all of the foregoing weed and crop plants were planted at the same time as controls. The control plantings were untreated; i.e., neither any compound nor any solvent was applied. At the same time, cotton having five leaves (including cotyledonary ones), bush beans with the third trifoliate leaf expanding, crabgrass with two leaves, barnyardgrass with two leaves, wild oats with two leaves, cassia with three leaves (including cotyledonary ones), morningglory with four leaves (including the cotyledonary ones), cocklebur with four leaves (including the cotyledonary ones), sorghum with four leaves, corn with four leaves, soybean with two cotyledonary leaves, rice with three leaves, wheat with one leaf, and nutsedge with three-five leaves were sprayed with a nonphytotoxic solvent solution of the compounds of Table XII. Other groups of all the same weed and crop plants were sprayed with the same nonphytotoxic solvent so as to provide control plants. Preemergence and postemergence treated plants and controls were maintained in a greenhouse for sixteen days, then all treated plants were compared with their respective controls and rated visually for response to treatment.

morningglory [9] = experiment: Test A pre-emergence; format: in vivo, Ipomoea spp.
In short: as §1

bush bean = experiment: Test A post-emergence; format: in vivo, bush beans
nutsedge = experiment: Test A post-emergence; format: in vivo, Cyperus rotundus
In short: as §1

wild oats [10] = experiment: Test A post-emergence; format: in vivo, Avena fatua
In short: as §1

sorghum [11] = experiment: Test A post-emergence; format: in vivo
In short: as §1

cotton = experiment: Test A post-emergence; format: in vivo
In short: as §1

wheat [12] = experiment: Test A post-emergence; format: in vivo
In short: as §1

soybean [13] = experiment: Test A post-emergence; format: in vivo
In short: as §1

corn [14] = experiment: Test A post-emergence; format: in vivo
In short: as §1

rice [15] = experiment: Test A post-emergence; format: in vivo
In short: as §1

barnyardgrass [16] = experiment: Test A post-emergence; format: in vivo, Echinochloa crusgalli
In short: as §1

cassia [17] = experiment: Test A post-emergence; format: in vivo, Cassia tora
In short: as §1

cocklebur [18] = experiment: Test A post-emergence; format: in vivo, Xanthium spp.
In short: as §1

morningglory [19] = experiment: Test A post-emergence; format: in vivo, Ipomoea spp.
In short: as §1

cassia [20] = experiment: Test A pre-emergence; format: in vivo, Cassia tora
In short: as §1

barnyardgrass [21] = experiment: Test A pre-emergence; format: in vivo, Echinochloa crusgalli
In short: as §1

crabgrass [22] = experiment: Test A post-emergence; format: in vivo, Digitaria spp.
In short: as §1

Row | Structure (SMILES) | response rating (sorghum [1]) [G] | response rating (wheat [2]) | response rating (soybean [3]) | response rating (rice [5]) [H] | response rating (cocklebur [6]) [G] | response rating (wild oats [7]) | response rating (crabgrass [8]) [G] | response rating (morningglory [9]) | response rating (bush bean) [C] | response rating (nutsedge) | response rating (wild oats [10]) [C] | response rating (sorghum [11]) [C] | response rating (cotton) [C] | response rating (wheat [12]) [C] | response rating (soybean [13]) [C] | response rating (corn [14]) [C] | response rating (rice [15]) [C] | response rating (barnyardgrass [16]) [C] | response rating (cocklebur [18]) [C] | response rating (cassia [20]) | also measured
1 | COc1nc(NC(=O)NS(=O)(=O)c2ccccc2C(=O)OCCCl)nc(OC)n1 [drawing 489] | 9 | 5G | 9H | 9 | 9 | 8G | 4 | 9C | – | – | – | – | – | – | – | – | – | – | – | – | response rating (corn [4]): 9G
2 | COC(=O)c1ccccc1S(=O)(=O)NC(=O)Nc1nc(OC)cc(OC)n1 [drawing 414] | – | – | – | – | – | – | – | – | 9 | 10C | 9 | 9 | 9 | 9 | 9 | 9 | 8 | 9 | 9 | – | response rating (cassia [17]): 9C; response rating (morningglory [19]): 10C
3 | COC(=O)c1cc(F)ccc1S(=O)(=O)NC(=O)Nc1nc(C)nc(OC)n1 [drawing 517] | 9 | 0 | 9H | 9 | – | 2G | 5 | 9G | – | – | – | – | – | – | – | – | – | – | – | 9G | –
4 | COC(=O)c1cc(Cl)c(Cl)cc1S(=O)(=O)NC(=O)Nc1nc(C)cc(OC)n1 [drawing 519] | – | 5G | – | 9 | 8 | 4G | 2 | 8G | – | – | – | – | – | – | – | – | – | – | – | 0 | response rating (barnyardgrass [21]): 9G
5 | COC(=O)c1cc([N+](=O)[O-])ccc1S(=O)(=O)NC(=O)Nc1nc(C)cc(OC)n1 [drawing 529] | – | 9G | 9H | 9 | 9 | – | – | 9G | – | – | – | – | – | – | – | – | – | – | – | 9G | –
6 | COC(=O)c1ccccc1S(=O)(=O)NC(=O)Nc1nc(C)nc(N(C)C)n1 [drawing 472] | – | – | – | – | – | – | – | – | 9 | 8G | 9 | 10 | 9 | 9 | 9 | 9 | 10 | 10 | 9 | – | response rating (cassia [17]): 9C; response rating (morningglory [19]): 10C
7 | CCOCCOC(=O)c1ccccc1S(=O)(=O)NC(=O)Nc1nc(Cl)cc(Cl)n1 [drawing 520] | 8 | 0 | 0 | 8 | – | 0 | 2 | 3G | – | – | – | – | – | – | – | – | – | – | – | 0 | response rating (corn [4]): 1C
8 | COC(=O)c1ccccc1S(=O)(=O)NC(=O)Nc1nc(C)nc(OC)n1 [drawing 415] | – | – | – | – | – | – | – | – | 9 | 9C | 10 | 10 | 9 | 10 | 9 | 10 | 10 | 10 | 9 | – | response rating (crabgrass [22]): 10C; response rating (morningglory [19]): 10C
